The text below walks through data of patent publication US20250127887A1 (priority 2021, published 2025).

Square brackets hold non-standard residues; d marks the D form. Ends that are not written are not given here. * marks the point of attachment. Azp = azidopentanoic acid, [N-]=[N+]=NCCCCC(=O)*; Cit = NC(=O)NCCC[C@H](N)C(=O)O

In one data set the test system is T cells. Nature of the data set: In vitro T cell recognition of modified E7 and Reps1 peptide antigen fragments. The class given is cell-based. The settings on record: E7 (RAHYNIVTF) and Reps1 (AQLANDVVL) fragments modified at N- or C-terminus; FIGS. 28A and B. An excerpt:
To study the impact of the solubilizing block and extensions on peptide antigen recognition by T cells in vitro, two model antigens, E7 ([…]) and Reps1 ([…]), modified at the N-terminal and/or C-terminal positions were produced by solid-phase peptide synthesis (Tables 25 and 26), and then screened in vitro for T cell recognition (FIG. 28).

Data set [1] deals with antigen specific CD4 T cells expressing FOXP3. Nature of the data set: Proportion of T cells expressing Tbet or Foxp3; Treg induction by tolerance vaccines with inhibitors and immunostimulants. The class given is cell-based.
A further data set deals with OT-II cells. Briefly: In vitro induction of regulatory T cells by tolerance vaccine formulations in co-culture of CD11c+ APCs and OT-II cells, flow cytometry. The format is cell-based. The conditions noted are these: 500 nM peptide antigen conjugate, three days. (In general: Flow cytometry measures light scatter and fluorescence of single cells or particles in a stream.)

Data set [2] is classed as physicochemical. The settings on record: pH 7.4.
Data set [3] in a line: pH-responsiveness of carboxylic acid amphiphiles by turbidity (OD at 490 nm). The format is physicochemical. The settings on record: 0.1 mM in 1×PBS at pH 7.4, 7.0 or 6.5.
Where [4] appears, read: Torin-1 combined with TLR-7/8a 2BXy, peptide antigen conjugate 500 nM.

Take “341: "modification of the C-terminus of peptide antigen fragments (e.g., Compounds 341 and 362) is more well tolerated" (RAHYNIVTFSV[Cit][Azidolysine]-NH2) [Compound 341]”: in the data set on T cells, the “potency for T cell recognition” value is “more well tolerated”.

As to “343: "modification of the N-terminus of peptide antigen fragments (e.g., Compounds, 343 and 364) negatively impacts potency" (Azp-V[Cit]RAHYNIVTFS-NH2; SMILES CC[C@H](C)[C@H](NC(=O)[C@H](CC(N)=O)NC(=O)[C@H](Cc1ccc(O)cc1)NC(=O)[C@H](Cc1c[nH]cn1)NC(=O)[C@H](C)NC(=O)[C@H](CCCNC(=N)N)NC(=O)[C@H](CCCNC(N)=O)NC(=O)[C@@H](NC(=O)CCCCN=[N+]=[N-])C(C)C)C(=O)N[C@H](C(=O)N[C@H](C(=O)N[C@@H](Cc1ccccc1)C(=O)N[C@@H](CO)C(N)=O)[C@@H](C)O)C(C)C) [Compound 343]”, the “potency for T cell recognition” value in the data set on T cells is listed as “negatively impacts potency”.

Regarding “364: "modification of the N-terminus of peptide antigen fragments (e.g., Compounds, 343 and 364) negatively impacts potency" (Azp-V[Cit]AQLANDVVL-NH2; SMILES CC(C)C[C@H](NC(=O)[C@@H](NC(=O)[C@@H](NC(=O)[C@H](CC(=O)O)NC(=O)[C@H](CC(N)=O)NC(=O)[C@H](C)NC(=O)[C@H](CC(C)C)NC(=O)[C@H](CCC(N)=O)NC(=O)[C@H](C)NC(=O)[C@H](CCCNC(N)=O)NC(=O)[C@@H](NC(=O)CCCCN=[N+]=[N-])C(C)C)C(C)C)C(C)C)C(N)=O) [Compound 364]”, the “potency for T cell recognition” value in the data set on T cells is on record as “negatively impacts potency”.

Consider `CCC(=O)N1CCN(c2ccc(-n3c(=O)ccc4cnc5ccc(-c6cnc7ccccc7c6)cc5c43)cc2C(F)(F)F)CC1` [Torin-1, Torin 1], for which, in data set [1] (Torin-1 combined with TLR-7/8a 2BXy, versus other immunostimulants), the “Magnitude of Tregs induced by tolerance vaccines” value is “highest magnitude Treg responses”. Besides, in data set [1] (setting [4]), the “Magnitude of Treg responses, fold higher than Torin-1 alone” value stood at 2 fold and the “Magnitude of Treg responses, fold higher than the vaccine without Torin-1” value came to 8 fold. Further, in data set [1] (compared with SR1555, rapamycin and ITE, peptide antigen conjugate 500 nM), the “Proportion of antigen specific CD4 T cells expressing FOXP3” value is recorded as “higher proportion of antigen specific CD4 T cells expressing FOXP3”. In addition, the “proportion of Tregs (Treg/Tbet) relative to formulations with rapamycin” value with OT-II cells is on record as 2-4 fold. The “number and proportion of Tregs induced” value in the data set with OT-II cells (vaccines with inhibitor vs without inhibitors, FIGS. 25 and 26) is “significantly higher”.

In the case of “KKKKKKK-SGSGSGSGSGSGSGSGSGSGSGSG-(Lys(N3-DBCO))-Ahx-(F′)5 [Compound 91]”, the “Size (diameter, nm)” value in data set [2] stood at 477 nm.

For “{Succinic acid}4K2K{Lys(N3-DBCO)}-Ahx-2B3W2 [Compound 274]”, in data set [3], the “pH-responsiveness: aggregation / particle size stability by turbidity (OD at 490 nm)” value is “stable particle sizes down to at least pH 7.0”.
